Laboratory results: article PMC6004566 (ACS Medicinal Chemistry Letters, 2018)
One block for each compound: values may come before it.

Legend:
NOTUM [1] = target: T1, NOTUM (Homo sapiens, UniProt Q6P988); assay: Competitive gel-based ABPP; type: biochemical; details: 10 μM, 30 min pretreatment at 37 °C; CM of WT-NOTUM-transfected HEK293T cells
T1 sequence (Q6P988 20-496): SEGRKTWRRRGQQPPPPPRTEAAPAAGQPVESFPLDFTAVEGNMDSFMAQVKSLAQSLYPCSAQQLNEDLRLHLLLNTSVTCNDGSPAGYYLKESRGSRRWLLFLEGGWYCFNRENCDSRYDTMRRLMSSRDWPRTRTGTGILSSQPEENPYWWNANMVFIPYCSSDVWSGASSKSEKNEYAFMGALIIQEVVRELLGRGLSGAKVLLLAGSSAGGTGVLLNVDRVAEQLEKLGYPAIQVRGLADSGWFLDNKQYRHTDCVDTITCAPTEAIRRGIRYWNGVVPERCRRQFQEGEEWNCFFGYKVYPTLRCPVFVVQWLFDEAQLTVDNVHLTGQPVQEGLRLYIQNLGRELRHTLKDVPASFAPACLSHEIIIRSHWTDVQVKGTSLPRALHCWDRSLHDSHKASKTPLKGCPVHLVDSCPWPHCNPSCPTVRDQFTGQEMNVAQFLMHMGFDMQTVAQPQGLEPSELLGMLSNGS

PPT1 = target: T2, PPT1 (Homo sapiens, UniProt P50897); type: cell-based; details: SW620 cells in situ 2 h; ABC45 probe 1 µM
T2 sequence (P50897 28-306): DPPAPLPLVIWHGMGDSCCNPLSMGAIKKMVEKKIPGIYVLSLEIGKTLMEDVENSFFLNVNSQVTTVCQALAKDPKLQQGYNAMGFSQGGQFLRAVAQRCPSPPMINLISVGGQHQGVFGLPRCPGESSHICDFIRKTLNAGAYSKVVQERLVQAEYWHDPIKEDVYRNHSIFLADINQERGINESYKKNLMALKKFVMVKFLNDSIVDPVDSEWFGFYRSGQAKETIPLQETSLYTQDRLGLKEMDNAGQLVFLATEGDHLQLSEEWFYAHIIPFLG

serine hydrolases = assay: Competitive gel-based ABPP; type: cell-based, human; details: SW620 soluble and membrane proteomes, in situ 2 h, 37 °C, FP-Rh
NOTUM [2] = target: T1, NOTUM; type: biochemical; details: SW620 CM; for inhibitory activity for NOTUM: competitive gel-based ABPP
[3] = system: FP-biotin-enriched proteins of SW620 conditioned media; assay: Quantitative MS-based ABPP of SW620 CM; type: biochemical, human; details: 0.5 and 10 μM; both CM and SW620 in situ treated cells
NOTUM [4] = target: T1, NOTUM; assay: ABC99yne direct labeling; details: 0.1 μM probe; CM and cellular lysate of SW620 cells; Rh-N3 click
ABHD6 = target: T3, ABHD6 (Homo sapiens, UniProt Q9BV23); assay: MS-based ABPP, SW620 cells in situ; type: cell-based; details: 10 µM, Supplementary Figure 3
T3 sequence (Q9BV23 1-337): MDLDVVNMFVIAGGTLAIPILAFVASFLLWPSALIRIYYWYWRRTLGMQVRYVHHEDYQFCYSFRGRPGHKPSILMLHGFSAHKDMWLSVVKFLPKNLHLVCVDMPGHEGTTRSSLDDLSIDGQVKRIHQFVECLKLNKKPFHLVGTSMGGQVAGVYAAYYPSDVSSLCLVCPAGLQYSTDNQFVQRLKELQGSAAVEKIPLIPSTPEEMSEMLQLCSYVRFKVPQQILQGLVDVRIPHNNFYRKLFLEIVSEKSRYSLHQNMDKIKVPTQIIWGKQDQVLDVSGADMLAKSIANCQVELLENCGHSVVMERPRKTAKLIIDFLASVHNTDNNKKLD

FP-Rh reactivity with NOTUM (NOTUM [1]): blocked FP-Rh reactivity with NOTUM
SMILES: COc1ccc(N2CCN(C(=O)ON3C(=O)C4CN(Cc5ccc(Br)cc5)CCN4C3=O)CC2)cc1 (stereo not drawn) [ABC28]

FP-Rh reactivity with NOTUM (NOTUM [1]): blocked FP-Rh reactivity with NOTUM
SMILES: O=C1C2CN(Cc3ccc(Oc4ccccc4)nc3)CCN2C(=O)N1OC(=O)N1CCOc2ccccc21 (stereo not drawn) [ABC63]
PPT1 inhibition (PPT1): did not inhibit PPT1 at concentrations up to 10 μM

PPT1 inhibition (PPT1): potent inhibitor of PPT1
SMILES: COc1ccc(N2CCN(C(=O)ON3C(=O)C4CN(Cc5ccc(Cl)cc5)CCN4C3=O)CC2)cc1 (stereo not drawn) [ABC90]
selectivity across serine hydrolases (serine hydrolases): only a single major site of ABC90 cross reactivity was observed; a 35 kDa protein that we suspected was ABHD6

inhibitory activity for NOTUM (NOTUM [2]): completely lost activity
SMILES: COc1ccc(N2CCN(C(=O)ON3C(=O)C4CN(Cc5cccc(Cl)c5)CCN4C3=O)CC2)cc1 (stereo not drawn) [ABC91]

SMILES: O=C1C2CN(Cc3ccc(Cl)cc3)CCN2C(=O)N1OC(=O)N1CCOc2ccccc21 (stereo not drawn) [ABC99]
cross-reactivity with the 64 additional serine hydrolases quantified by MS-ABPP [3]: virtually no cross-reactivity
PPT1 inhibition (PPT1): did not cross-react

IC50 for blockade of FP-Rh reactivity of NOTUM (NOTUM [2]; 30 min, 37 °C): sub-micromolar
SMILES: C#CCN1CCN(C(=O)ON2C(=O)C3CN(Cc4ccc(Cl)cc4)CCN3C2=O)c2ccccc21 (stereo not drawn) [ABC99yne]
direct labeling selectivity (NOTUM [4]): highly selective labeling of NOTUM with no other cross-reactive proteins observed

SMILES: O=C(c1ccc(Cl)cc1)N1CCN2C(=O)N(OC(=O)N3CCOc4ccccc43)C(=O)C2C1 (stereo not drawn) [ABC101]
inhibitory activity for NOTUM (NOTUM [2]): lost inhibitory activity for NOTUM
inhibition of ABHD6 (ABHD6): maintained inhibition of ABHD6
